One test concerns washed plasma clot. As to the kind of experiment: procoagulant activity of washed plasma clot in unanticoagulated whole blood. It counts as biochemical. Particulars: washed plasma clot incubated in unanticoagulated whole blood. The text has this: There is mounting evidence that both fibrin-bound thrombin and platelet-bound factor Xa contribute to the intense procoagulant activity of thrombi. […] Development of these agents requires an understanding of the mechanisms by which fibrin-bound IIa and platelet-bound factor Xa are protected from inactivation by heparin, LMWH and hirudin.

For the next test, the system named is injured rabbit aorta. As to the kind of experiment: rabbit arterial thrombosis prevention model. It is filed as in vivo. The note with it: over the doses tested.
Test [1] concerns the target thrombin (IIa) binding to fibrin (Homo sapiens, UniProt P00734). As to the kind of experiment: effect on thrombin (IIa) binding to fibrin / fibrin monomer-sepharose. Particulars: presence of 250 nM heparin. The procedure: FIGS. 1A and 1B illustrate the effects of varying heparin concentrations on thrombin (IIa) binding to fibrin (A) and on thrombin's apparent affinity for fibrin (B).
FIG. 3 illustrates the effect of hirugen (Hg), prothrombin fragment 2 (F2) or antibody against exosite 2 (Wab) on thrombin (IIa) binding to fibrin monomersepharose in the absence or presence of 250 nM heparin.
FIG. 9 illustrates the effect of unfractionated heparin (UFH) and a 6,000 Da heparin fraction (MLMWH) on thrombin (IIa) binding to fibrin.
When heparin is present, the amount of thrombin that binds to fibrin changes, as does the mode of thrombin interaction with fibrin.
The mode of thrombin binding also changes in the presence of heparin. Whereas thrombin binds to fibrin via exosite 1 in the absence of heparin, enhanced α-thrombin binding seen in the presence of heparin is mediated by exosite 2 because heparin augments the binding of γ-thrombin to the same extent as α-thrombin but has little effect on the binding of RA-thrombin (FIG. 2). Furthermore, excess α-thrombin bound in the presence of heparin is displaced with an antibody to exosite 2 or with prothrombin fragment 2 (F2) which, like heparin, also binds to exosite 2 (Arni, R. K., et al. (1993) Biochemistry 32:4727-4737). […]

Description for injured rabbit aorta: The arterial thrombosis prevention model was modified so that both efficacy and safety could be assessed in the same animal. […] The four compounds were compared at three dosage levels. Each compound was administered as a bolus and infusion for 90 minutes. The doses listed in the following figures represent the bolus and infusion/60 minutes, administered for 90 minutes. The doses for heparin are shown as units/Kg, for LMWH and V21 as mg/Kg and for hirudin as mg/Kg. […] Thus, the specific activity of LMWH is 100 anti-Xa/mg and 30 anti-IIa units/mg. […] The anticoagulants were compared in the following dosages. Heparin 50 units/Kg and 75 unit/Kg; LMWH and V21 0.5, 1.0 and 1.5 mg/Kg; Hirudin 0.1/0.1, 0.1/0.2 and 0.1/0.3 mg/Kg.
FIG. 11 compares the efficacy of the four anticoagulants using cumulative time that the aorta remained patent over the 90 minutes of observation as the outcome measure of efficacy. One hundred percent accumulated patency reflects complete patency and 0% cumulative patency reflects immediate and sustained thrombotic occlusion.

Take “TAP: tick anticoagulant peptide, a direct inhibitor of factor Xa (YNRLCIKPRDWIDECDSNEGGERAYFRNGKGGCDSFWICPEDHTGADYYSSYRDCFNACI; UniProt P17726 1-60, looked up)”: the “block of the clot's ability to accelerate coagulation” value in the test with washed plasma clot is given as “cannot be blocked”.
Turning to hirudin, the “response of the model to the antithrombotic effects” value with injured rabbit aorta was “very responsive”. Moreover, the “block of the clot's ability to accelerate coagulation” value in the test on washed plasma clot is given as “cannot be blocked”.

B1: prothrombin fragment 2 (F2): prothrombin fragment 2, binds to exosite 2 of thrombin (protein, UniProt P00734 199-327, looked up)
Activation peptide fragment 2: SEGSSVNLSPPLEQCVPDRGQQYQGRLAVTTHGLPCLAWASAQAKALSKHQDFNSAVQLVENFCRNPDGDEEGVWCYVAGKPGDFGYCDLNYCEEAVEEETGDGLDEDSDRAIEGRTATSEYQTFFNPR
modifications: Activation peptide fragment 2
B1: in test [1], the “effect on heparin-dependent binding of thrombin to fibrin” value is “displaced”.

The values are drawn from US6075013A, “Modified low molecular weight heparin that inhibits clot associated coagulation factors” (Hamilton Civic Hospitals Research Development Inc., priority 1998, dated 2000).
